biological target: T1, vanilloid receptor (Rattus norvegicus, UniProt O35433); experiment: 45Ca influx test (calcium uptake) in primary cultured neonatal rat DRG neurons, capsaicin-stimulated; type: cell-based, SD rats; conditions: capsaicin 0.5 µM, 45Ca 10 µCi/ml, 10 mins at room temperature, read-out: Antagonist Calcium Uptake Test (IC50)
T1 construct: DRG nerve cells from the primary culture of 2 days were equilibrated by washing 4 times; endogenous in cells; host or cells: primary culture of dorsal root ganglion (DRG) neurons from neonatal SD rats
T1 sequence (O35433 whole entry): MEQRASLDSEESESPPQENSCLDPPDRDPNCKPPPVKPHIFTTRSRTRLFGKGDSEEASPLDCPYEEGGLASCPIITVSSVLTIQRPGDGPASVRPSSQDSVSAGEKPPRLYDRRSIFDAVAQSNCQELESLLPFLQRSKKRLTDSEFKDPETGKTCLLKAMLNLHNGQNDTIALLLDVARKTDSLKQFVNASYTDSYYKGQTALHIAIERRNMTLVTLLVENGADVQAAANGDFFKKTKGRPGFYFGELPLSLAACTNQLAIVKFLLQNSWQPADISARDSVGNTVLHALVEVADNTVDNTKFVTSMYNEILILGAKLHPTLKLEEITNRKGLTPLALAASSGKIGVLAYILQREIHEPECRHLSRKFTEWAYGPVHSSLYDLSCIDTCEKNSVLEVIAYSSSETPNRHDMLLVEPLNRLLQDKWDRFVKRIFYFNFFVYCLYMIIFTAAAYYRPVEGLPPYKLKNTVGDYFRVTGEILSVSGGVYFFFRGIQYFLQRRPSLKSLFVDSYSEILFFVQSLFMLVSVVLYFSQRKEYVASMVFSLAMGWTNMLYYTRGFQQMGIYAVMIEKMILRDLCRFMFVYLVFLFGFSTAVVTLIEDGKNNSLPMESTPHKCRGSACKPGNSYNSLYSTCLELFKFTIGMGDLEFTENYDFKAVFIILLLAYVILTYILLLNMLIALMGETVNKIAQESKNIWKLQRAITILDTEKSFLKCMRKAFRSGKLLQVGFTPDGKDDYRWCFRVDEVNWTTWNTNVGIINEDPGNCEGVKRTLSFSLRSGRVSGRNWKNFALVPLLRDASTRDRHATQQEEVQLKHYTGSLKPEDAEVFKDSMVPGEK
Description: 1) Separation of spinal dorsal root ganglia (DRG) in newborn rats and primary culture thereof
Neonatal (2-3 day old or younger than 2-3 day old) SD rats were put in ice for 5 minutes to anesthetize and disinfected with 70% ethanol. DRG of all part of spinal cord were dissected (Wood et al., 1988, J. Neurosci. 8, pp3208-3220) and collected in DME/F12 medium to which 1.2g/l sodium bicarbonate, 50mg/l gentamycin were added. The DRG were incubated sequentially at 37°C for 30 min in 200 U/ml collagenase and 2.5mg/ml trypsin, separately. The gangiia were washed twice with DME/F12 medium supplemented with 10% horse serum, triturated through a fire-polished Pasteur pipette, filtered through Nitex 80 membrane to obtain single cell suspension and the suspension was washed once more. This was subjected to centrifugation, then resuspended in cell culture medium at certain level of cell density. As the cell culture medium, DME/F12 medium supplemented with 10% horse serum was diluted with identical medium conditioned by C6 glioma cells 2 days on a confluent monolayer (1:1), and NGF (Nerve Growth Factor) was added to adjust 200ng/ml as final concentration. After the cells were grown 2 days in medium where cytosine arabinoside (Ara-C, 100 µM) was added to kill dividing nonneuronal cells, medium was changed to one without Ara-C. The resuspended cells were plated at a density of 1500-2000 neurons/well onto Terasaki plates previously coated with 10 µg/ml poly-D-ornithine.
2) ^45 Ca influx experiments
DRG nerve cells from the primary culture of 2 days were equilibrated by washing 4 times with HEPES (10mM, pH 7.4)-buffered Ca ^2+, Mg^2+-free HBSS (H-HBSS). The solution in each well was removed from the individual well. Medium containing the test compound plus capsaicin (final concentration 0.5 µM) and ^45Ca (final concentration 10 µCi/ml) in H-HBSS was added to each well and incubated at room temperature for 10 mins. Terasaki plates were washed five times with H-HBSS and dried at room temperature. To each well, 0.3% SDS (10 µl) was added to elute ^45Ca. After the addition of scintillation cocktail of into each well, the amount of ^45Ca influx into neuron was measured by counting radioactivity. […] [Table 1] Results of Calcium Influx Test

| SMILES | IC50 [nM] |
| --- | --- |
| CC(C)(C)c1ccc(OCC(=O)NCc2ccc(NS(C)(=O)=O)cc2)cc1 [Example 1, 2-(4-tert-Butylphenoxy)-N-(4-methanesulfonylaminobenzyl)acetamide] | 110 |
| C=Cc1cc(CNC(=O)COc2ccc(C(C)(C)C)cc2)ccc1NS(C)(=O)=O [Example 4, 2-(4-tert-Butylphenoxy)-N-(4-methanesulfonylamino-3-vinylbenzyl)acetamide] | 81 |
| CCc1cc(CNC(=O)COc2ccc(C(C)(C)C)cc2)cc(F)c1NS(C)(=O)=O [Example 7, 2-(4-tert-Butylphenoxy)-N-(3-ethyl-5-fluoro-4-methanesulfonylaminobenzyl)acetamide] | 130 |
| Cc1cc(CNC(=O)COc2ccc(C(C)(C)C)cc2)cc(Cl)c1NS(C)(=O)=O [Example 8, 2-(4-tert-Butyl-phenoxy)-N-(3-chloro-4-methanesulfonylamino-5-methylbenzyl)acetamide] | 110 |
| Cc1cc(NS(C)(=O)=O)c(F)cc1CNC(=O)COc1ccc(C(C)(C)C)cc1 [Example 9, 2-(4-tert-Butylphenoxy)-N-(5-fluoro-4-methanesulfonylamino-2-methylbenzyl)acetamide] | 330 |
| Cc1cc(CNC(=O)COc2ccc(C(C)(C)C)cc2)cc(F)c1NS(C)(=O)=O [Example 10, 2-(4-tert-Butylphenoxy)-N-(3-fluoro-4-methanesulfonylamino-5-methylbenzyl) acetamide] | 160 |
| C[C@@H](NC(=O)COc1ccc(C(C)(C)C)cc1)c1ccc(NS(C)(=O)=O)cc1 [Example 11, (R)-2-(4-tert-Butylphenoxy)-N-[1-(4-methanesulfonylaminophenyl)ethyl]acetamide] | 96 |
| C[C@@H](Oc1ccc(C(C)(C)C)cc1)C(=O)NCc1ccc(NS(C)(=O)=O)c(F)c1 [Example 13, (R)-2-(4-tert-Butylphenoxy)-N-(3-fluoro-4-methanesulfonylaminobenzyl)propionamide] | 160 |
| C[C@H](Oc1ccc(C(C)(C)C)cc1)C(=O)NCc1ccc(NS(C)(=O)=O)c(F)c1 [Example 14, (S)-2-(4-tert-Butylphenoxy)-N-(3-fluoro-4-methanesulfonylaminobenzyl)propionamide] | 760 |
| C[C@@H](NC(=S)COc1ccc(C(C)(C)C)cc1)c1ccc(NS(C)(=O)=O)cc1 [Example 15, (R)-2-(4-tert-Butylphenoxy)-N-[1-(4-methanesulfonylaminophenyl)ethyl]thioacetamide] | 680 |
| C[C@@H](N/C(COc1ccc(C(C)(C)C)cc1)=N/C#N)c1ccc(NS(C)(=O)=O)cc1 [Example 17, (R)-2-(4-tert-Butylphenoxy)-N-[1-(4-methanesulfonylaminophenyl)ethyl]-N'-cyanoacetamidine] | 210 |
| CC(C)(C)c1ccc(SCC(=O)NCc2ccc(NS(C)(=O)=O)c(F)c2)cc1 [Example 19, 2-(4-tert-Butyl-phenylsulfanyl)-N-(3-fluoro-4-methanesulfonylaminobenzyl)-acetamide] | 1500 |
| C#Cc1cc(CNC(=O)CSc2ccc(C(C)(C)C)cc2)cc(F)c1NS(C)(=O)=O [Example 20, 2-(4-tert-Butyl-phenylsulfanyl)-N-(3-ethynyl-5-fluoro-4-methanesulfonylamino-benzyl)-acetamide] | 190 |
| CC(C)(Oc1ccc(C(F)(F)F)cc1)C(=O)NCc1ccc(NS(C)(=O)=O)c(Cl)c1 [Example 21, N-(3-Chloro-4-methanesulfonylamino-benzyl)-2-methyl-2-(4-trifluoromethyl-phenoxy)-propionamide] | > 10000 |
| CS(=O)(=O)Nc1ccc(CNC(=O)COc2ccc(Cl)cc2Cl)cc1F [Example 22, 2-(2,4-Dichloro-phenoxy)-N-(3-fluoro-4-methanesulfonylaminobenzyl)-acetamide] | > 10000 |
| CC(C)(Oc1ccc(C(F)(F)F)cc1)C(=O)NCc1ccc(NS(C)(=O)=O)c(F)c1 [Example 23, N-(3-Fluoro-4-methanesulfonylamino-benzyl)-2-methyl-2-(4-trifluoromethyl-phenoxy)-propionamide] | > 10000 |
| CS(=O)(=O)Nc1ccc(CNC(=O)COc2ccc(Cl)c(Cl)c2)cc1F [Example 25, 2-(3,4-Dichloro-phenoxy)-N-(3-fluoro-4-methanesulfonylaminobenzyl)-acetamide] | 2300 |
| CS(=O)(=O)Nc1ccc(CNC(=O)COCc2ccc(C(F)(F)F)cc2)cc1F [Example 26, N-(3-Fluoro-4-methanesulfonylamino-benzyl)-2-(4-trifluoromethylbenzyloxy)-acetamide] | > 10000 |

| SMILES | IC50 [nM] |
| --- | --- |
| CS(=O)(=O)Nc1ccc(CNC(=O)COc2ccc(-c3ccccc3)cc2)cc1F [Example 27, 2-(Biphenyl-4-yloxy)-N-(3-fluoro-4-methanesulfonylamino-benzyl)-acetamide] | > 10000 |
| CS(=O)(=O)Nc1ccc(CNC(=O)COc2ccc(OC(F)(F)F)cc2)cc1F [Example 28, N-(3-Fluoro-4-methanesulfonylaminobenzyl)-2-(4-(trifluoromethoxy)phenoxy)acetamide] | 4300 |
| CS(=O)(=O)Nc1ccc(CNC(=O)COc2ccc3c(c2)OCO3)cc1F [Example 29, 2-(Benzo[1,3]dioxol-5-yloxy)-N-(3-fluoro-4-methanesulfonylaminobenzyl)-acetamide] | > 10000 |
| C=Cc1cc(CNC(=O)COc2ccc3c(c2)OCO3)cc(F)c1NS(C)(=O)=O [Example 30, 2-(Benzo[1,3]dioxol-5-yloxy)-N-(3-fluoro-4-methanesulfonylamino-5-vinyl-benzyl)-acetamide] | 3400 |
| COc1cc(C)ccc1OCC(=O)NCc1ccc(NS(C)(=O)=O)c(F)c1 [Example 31, N-(3-Fluoro-4-methanesulfonylamino-benzyl)-2-(2-methoxy-4-methyl-phenoxy)-acetamide] | > 10000 |
| COc1cc(Cl)ccc1OCC(=O)NCc1ccc(NS(C)(=O)=O)c(F)c1 [Example 32, 2-(4-Chloro-2-methoxy-phenoxy)-N-(3-fluoro-4methanesulfonylamino-benzyl)-acetamide] | > 10000 |
| CS(=O)(=O)Nc1ccc(CNC(=O)COc2cc(Cl)cc(Cl)c2)cc1F [Example 33, N-(3-Fluoro-4-methanesulfonylaminobenzyl)-2-(3,5-dichlorophenoxy)acetamide] | > 10000 |
| CS(=O)(=O)Nc1ccc(CNC(=O)COc2ccc(Cl)cc2)cc1F [Example 34, 2-(4-Chloro-phenoxy)-N-(3-fluoro-4-methanesulfonylamino-benzyl)-acetamide] | 8700 |
| Cc1cc(OCC(=O)NCc2ccc(NS(C)(=O)=O)c(F)c2)ccc1[N+](=O)[O-] [Example 35, N-(3-Fluoro-4-methanesulfonylaminobenzyl)-2-(3-methyl-4-nitrophenoxy)acetamide] | > 10000 |
| CS(=O)(=O)Nc1ccc(CNC(=O)COc2ccc(I)cc2)cc1F [Example 36, N-(3-Fluoro-4-methanesulfonylamino-benzyl)-2-(4-iodo-phenoxy)-acetamide] | 1200 |
| CS(=O)(=O)Nc1ccc(CNC(=O)COc2ccc(F)cc2F)cc1F [Example 37, N-(3-Fluoro-4-methanesulfonylaminobenzyl)-2-(2,4-difluorophenoxy)acetamide] | > 10000 |
| CS(=O)(=O)Nc1ccc(CNC(=O)COc2c(I)cc(C(F)(F)F)cc2I)cc1F [Example 38, 2-(2,6-Diiodo-4-trifluoromethyl-phenoxy)-N-(3-fluoro-4-methanesulfonylamino-benzyl)-acetamide] | 2600 |
| CS(=O)(=O)Nc1ccc(CNC(=O)COc2ccc(C(F)(F)F)cc2I)cc1F [Example 39, N-(3-Fluoro-4-methanesulfonylamino-benzyl)-2-(2-iodo-4-trifluoromethyl-phenoxy)-acetamide] | > 10000 |
| CC(C)(C)c1cccc(OCC(=O)NCc2ccc(NS(C)(=O)=O)c(F)c2)c1 [Example 40, N-(3-Fluoro-4-methanesulfonylaminobenzyl)-2-(3-tert-butylphenoxy)acetamide] | 1800 |
| CCCOc1ccc(OCC(=O)NCc2ccc(NS(C)(=O)=O)c(F)c2)cc1 [Example 41, N-(3-Fluoro-4-methanesulfonylaminobenzyl)-2-(4-n-propoxyphenoxy)acetamide] | > 10000 |
| CS(=O)(=O)Nc1ccc(CNC(=O)COc2cccc(Cl)c2)cc1F [Example 42, N-(3-Fluoro-4-methanesulfonylaminobenzyl)-2-(3-chlorophenoxy)acetamide] | > 10000 |
| CS(=O)(=O)Nc1ccc(CNC(=O)COc2ccc(C(F)(F)F)cc2N2CCOCC2)cc1F [Example 43, N-(3-Fluoro-4-methanesulfonylamino-benzyl)-2-(2-morpholin-4-yl-4-trifluoromethyl-phenoxy)-acetamide] | > 10000 |
